Target: T1, human MAGL (His-hMAGL) (Homo sapiens, UniProt Q99685)
T1 construct: made in house; host or cells: Escherichia coli BL21(DE3)
T1 sequence (Q99685 1-303): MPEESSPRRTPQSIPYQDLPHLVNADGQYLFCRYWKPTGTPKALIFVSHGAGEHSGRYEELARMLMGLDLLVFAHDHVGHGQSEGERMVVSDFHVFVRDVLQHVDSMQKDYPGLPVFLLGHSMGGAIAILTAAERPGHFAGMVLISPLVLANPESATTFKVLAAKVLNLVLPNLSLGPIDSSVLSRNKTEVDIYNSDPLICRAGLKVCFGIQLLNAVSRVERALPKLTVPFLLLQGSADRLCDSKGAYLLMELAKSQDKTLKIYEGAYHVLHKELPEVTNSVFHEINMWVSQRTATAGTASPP
Assay: Measurement of MAGL inhibitory activity by mass spectrometry
Format: biochemical
Settings: 10 μM test compound; substrate 2-arachidonylglycerol, arachidonic acid by RapidFire-mass spectrometry
Outline: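 His-tagged human MAGL was reacted with 150 μM 2-arachidonylglycerol substrate (stock, added by 5 μL) for 10 min at room temperature, then stopped with formic acid. Arachidonic acid product was quantified by RapidFire–triple-quadrupole MS in negative SRM mode, corrected by arachidonic acid-d8, and converted to percent inhibition.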

Row | inhibition at 10 µM [%] | Structure (SMILES)
1 | 101 | Cc1cccc(C#N)c1-c1cccc(N2CC(N3CCN(C(=O)c4nccs4)CC3)CC2=O)c1 (centres unmarked) [Example 154, 6-methyl-3′-(2-oxo-4-(4-(1,3-thiazol-2-ylcarbonyl)piperazin-1-yl)pyrrolidin-1-yl)biphenyl-2-carbonitrile]
2 | 96 | NS(=O)(=O)c1ccc(-c2cccc(N3CC(N4CCN(C(=O)c5nccs5)CC4)CC3=O)c2)cc1 (centres unmarked) [Example 102, 3′-(2-oxo-4-(4-(1,3-thiazol-2-ylcarbonyl)piperazin-1-yl)pyrrolidin-1-yl)biphenyl-4-sulfonamide]
3 | 100 | Cc1ncccc1-c1cccc(N2CC(N3CCN(C(=O)c4nccs4)CC3)CC2=O)n1 (centres unmarked) [Example 174, 1-(2′-methyl-2,3′-bipyridin-6-yl)-4-(4-(1,3-thiazol-2-ylcarbonyl)piperazin-1-yl)pyrrolidin-2-one]
4 | 99 | Cc1ccsc1-c1cccc(N2CC(N3CCN(C(=O)c4nccs4)CC3)CC2=O)c1 (centres unmarked) [Example 162, 1-(3-(3-methyl-2-thienyl)phenyl)-4-(4-(1,3-thiazol-2-ylcarbonyl)piperazin-1-yl)pyrrolidin-2-one]

Same assay, conditions: MAGL inhibitory rate, test compound 10 μM, His-hMAGL, substrate 2-arachidonylglycerol, RapidFire-mass spectrometry

Row | inhibition at 10 µM [%] | Structure (SMILES)
5 | 98 | Cc1ncccc1-c1cc(F)cc(N2CC(N3CCN(c4ncccn4)CC3)CC2=O)c1 (centres unmarked) [Example 406, 1-(3-Fluoro-5-(2-methylpyridin-3-yl)phenyl)-4-(4-(pyrimidin-2-yl)piperazin-1-yl)pyrrolidin-2-one]
6 | 81 | O=C(c1nccs1)N1CCN(C2CC(=O)N(c3ccc4c(c3)CCN4)C2)CC1 (centres unmarked) [Example 374, 1-(2,3-Dihydro-1H-indol-5-yl)-4-(4-(1,3-thiazol-2-ylcarbonyl)piperazin-1-yl)pyrrolidin-2-one]
7 | 92 | Cc1c(-c2ccc(N3CC(N4CCN(C(=O)c5nccs5)CC4)CC3=O)cc2)cnn1C (centres unmarked) [Example 182, 1-(4-(1,5-dimethyl-1H-pyrazol-4-yl)phenyl)-4-(4-(1,3-thiazol-2-ylcarbonyl)piperazin-1-yl)pyrrolidin-2-one]
8 | 96 | CC(=O)Nc1cccc(-c2ccc(N3CC(N4CCN(C(=O)c5nccs5)CC4)CC3=O)cc2)c1 (centres unmarked) [Example 191, N-(4′-(2-oxo-4-(4-(1,3-thiazol-2-ylcarbonyl)piperazin-1-yl)pyrrolidin-1-yl)biphenyl-3-yl)acetamide]
9 | 104 | COc1cnc(N2CCc3cc(N4C[C@H](N5CCN(C(=O)c6nccs6)CC5)CC4=O)ccc32)nc1 [Example 407, (4R)-1-(1-(5-methoxypyrimidin-2-yl)-2,3-dihydro-1H-indol-5-yl)-4-(4-(1,3-thiazol-2-ylcarbonyl)piperazin-1-yl)pyrrolidin-2-one]
10 | 99 | Cc1cnccc1-c1cccc(N2CC(N3CCN(C(=O)c4nccs4)CC3)CC2=O)c1 (centres unmarked) [Example 203, 1-(3-(3-methylpyridin-4-yl)phenyl)-4-(4-(1,3-thiazol-2-ylcarbonyl)piperazin-1-yl)pyrrolidin-2-one]
11 | 99 | Cc1cc(-c2ccccc2)cc(N2CC(N3CCN(C(=O)c4nccs4)CC3)CC2=O)c1 (centres unmarked) [Example 240, 1-(5-methylbiphenyl-3-yl)-4-(4-(1,3-thiazol-2-ylcarbonyl)piperazin-1-yl)pyrrolidin-2-one]
12 | 95 | O=C1CC(N2CCN(c3ncccn3)CC2)CN1c1cccc(I)c1 (centres unmarked) [Example 254, 1-(3-iodophenyl)-4-(4-(pyrimidin-2-yl)piperazin-1-yl)pyrrolidin-2-one]
13 | 101 | O=C(c1nccs1)N1CCN(C2CC(=O)N(c3ccc4c(ccn4-c4cccc(C(F)(F)F)c4)c3)C2)CC1 (centres unmarked) [Example 280, 4-(4-(1,3-thiazol-2-ylcarbonyl)piperazin-1-yl)-1-(1-(3-(trifluoromethyl)phenyl)-1H-indol-5-yl)pyrrolidin-2-one]
14 | 91 | N#Cc1ccc(-c2ccc(N3CC(N4CCN(C(=O)c5nccs5)CC4)CC3=O)cc2)cc1 (centres unmarked) [Example 210, 4′-(2-oxo-4-(4-(1,3-thiazol-2-ylcarbonyl)piperazin-1-yl)pyrrolidin-1-yl)biphenyl-4-carbonitrile]

Reference: patent US9624170B2, “4-(piperrazin-1-yl)-pyrrolidin-2-one compounds as monoacylglycerol lipase (MAGL) inhibitors” (TAKEDA PHARMACEUTICAL COMPANY LIMITED, priority 2013, dated 2017)
